Experimental data taken from patent publication US20110039763A1, “TARGETED ANTIMICROBIAL MOIETIES” (C3 JIAN, INC., priority 2009, published 2011).
“Also recorded” adds a separate entry of the source.

system: microorganisms; assay: Targeting peptide binding to target microorganisms (Tables 3, 10, 12); settings: microorganism(s) the targeting peptide binds; binding in aqueous buffers varied with peptide solubility, preferably 1x PBS

Substance	Target(s)
PF-138 (AVHHSLLFR; Peptide with targeting and/or antimicrobial activity)	S. epidermidis and M. luteus and P. mirabilis and E. coli and C. albicans and MRSA and C. jeikeium and C. jejuni
PF-141 (VVRRFQGM; Peptide with targeting and/or antimicrobial activity)	S. epidermidis and M. luteus and C. albicans and MRSA and C. jeikeium
PF-142 (GIDRGCQAAR; Peptide with targeting and/or antimicrobial activity)	S. mutans
PF-146 (GCGKRRIITKSASRDTR; Peptide with targeting and/or antimicrobial activity)	S. epidermidis and M. luteus and P. aeruginosa and C. albicans and MRSA and C. jeikeium
PF-147 (RRPRRRRSGHGQSASAA; Peptide with targeting and/or antimicrobial activity)	S. epidermidis and M. luteus and MRSA
PF-150 (EIQAKGTG; Peptide with targeting and/or antimicrobial activity)	S. epidermidis and MRSA
PF-151 (EEYPARVPLSGEDVTEARRH; Peptide with targeting and/or antimicrobial activity)	S. epidermidis and MRSA and E. faecalis and C. jeikeium
PF-152 (VGYFIWKDSHSRKG; Peptide with targeting and/or antimicrobial activity)	S. epidermidis and C. albicans and MRSA and E. faecalis and C. jeikeium
PF-154 (GIKKSKHPSTDDYVVKTTIDSL; Peptide with targeting and/or antimicrobial activity)	S. mutans
PF-155 (GRYGDDSKERQGRAQ; Peptide with targeting and/or antimicrobial activity)	C. jeikeium
PF-158 (VRLESRPADLPE; Peptide with targeting and/or antimicrobial activity)	S. epidermidis
PF-159 (TMAFVEKAQLRVPVGDDLPV; Peptide with targeting and/or antimicrobial activity)	S. epidermidis
PF-160 (SFHASLTKNEKPIKSTG; Peptide with targeting and/or antimicrobial activity)	S. epidermidis
PF-161 (RGRALASTATTRPARRRR; Peptide with targeting and/or antimicrobial activity)	S. epidermidis; also recorded: M. luteus; also recorded: E. coli; also recorded: C. jejuni
PF-162 (GIRRLHSVENLNREISHRMAGLR; Peptide with targeting and/or antimicrobial activity)	S. epidermidis and MRSA
PF-163 (TSWLRAAERQEIGEPTKTFGEKTTSL; Peptide with targeting and/or antimicrobial activity)	S. epidermidis
PF-165 (GPVSVVASLRRGTTVQRHSQNNHNKGKP; Peptide with targeting and/or antimicrobial activity)	MRSA and C. jejuni
PF-166 (SKAVSRKRSI; Peptide with targeting and/or antimicrobial activity)	E. coli; also recorded: C. jeikeium
PF-169 (APGSAADSPRSRADD; Peptide with targeting and/or antimicrobial activity)	S. epidermidis; also recorded: E. coli; also recorded: C. albicans; also recorded: E. faecalis; also recorded: C. jeikeium
PF-172 (LTGVRRPWRAPWAGTSGWALR; Peptide with targeting and/or antimicrobial activity)	S. epidermidis and M. luteus and E. coli and P. aeruginosa and MRSA and E. faecalis and C. jejuni
PF-174 (RGGDSPARRRPGLAGPGGPG; Peptide with targeting and/or antimicrobial activity)	S. epidermidis; also recorded: P. aeruginosa; also recorded: C. jeikeium
PF-177 (VTSEPGIAHDIRLLPRAAAFR; Peptide with targeting and/or antimicrobial activity)	M. luteus and MRSA and E. faecalis and C. jeikeium
PF-181 (GIAPRRNEWGAVGGR; Peptide with targeting and/or antimicrobial activity)	S. epidermidis and M. luteus and E. coli and MRSA and E. faecalis and C. jeikeium
PF-182 (LPATRDKTRVPASVAGAP; Peptide with targeting and/or antimicrobial activity)	S. epidermidis; also recorded: M. luteus; also recorded: E. coli; also recorded: E. faecalis; also recorded: C. jeikeium
PF-183 (KPGISVENRQ; Peptide with targeting and/or antimicrobial activity)	S. epidermidis and M. luteus and E. coli and C. albicans and MRSA and E. faecalis and C. jeikeium
PF-184 (LIADRHIRA; Peptide with targeting and/or antimicrobial activity)	S. epidermidis and M. luteus and E. coli and P. aeruginosa and C. albicans and MRSA and C. jeikeium

Substance	Target(s)
PF-185 (RPAQARQGPGGLIADRHIRA; Peptide with targeting and/or antimicrobial activity)	E. coli; also recorded: P. aeruginosa
PF-187 (EIQKIAKGVSGQVYGPSRQITISKKR; Peptide with targeting and/or antimicrobial activity)	S. epidermidis and M. luteus and E. coli and MRSA
PF-189 (GNLTRSREAARATQ; Peptide with targeting and/or antimicrobial activity)	S. epidermidis and M. luteus and C. albicans and MRSA and E. faecalis and C. jejuni
PF-193 (PPHCPPGHAKKGWC; Peptide with targeting and/or antimicrobial activity)	S. epidermidis and M. luteus and E. coli and MRSA and E. faecalis and C. jejuni
PF-194 (MKGNKLATAHEQPVKNSAPPL; Peptide with targeting and/or antimicrobial activity)	C. jeikeium
PF-195 (EMAEGSADDRLRKTPRDC; Peptide with targeting and/or antimicrobial activity)	S. epidermidis; also recorded: M. luteus; also recorded: E. faecalis; also recorded: C. jeikeium
PF-197 (CNALLRRGHPPSAL; Peptide with targeting and/or antimicrobial activity)	S. epidermidis; also recorded: M. luteus; also recorded: C. albicans; also recorded: E. faecalis; also recorded: C. jejuni
PF-200 (GIELKSLIMAQIERWRQA; Peptide with targeting and/or antimicrobial activity)	S. epidermidis and M. luteus and MRSA and E. faecalis and C. jeikeium
PF-201 (GCRPASLSDADPDGR; Peptide with targeting and/or antimicrobial activity)	S. epidermidis; also recorded: M. luteus; also recorded: E. coli; also recorded: C. albicans; also recorded: E. faecalis; also recorded: C. jeikeium; also recorded: C. jejuni
PF-202 (ALNRASLRLALGE; Peptide with targeting and/or antimicrobial activity)	S. epidermidis and M. luteus and E. coli and MRSA and E. faecalis and C. jeikeium and C. jejuni
PF-206 (KLRSASKKSLQEKSCGIMPEKPAG; Peptide with targeting and/or antimicrobial activity)	M. luteus; also recorded: C. albicans; also recorded: C. jeikeium; also recorded: C. jejuni
PF-207 (AAGCRDLGSLSSLVTNPS; Peptide with targeting and/or antimicrobial activity)	M. luteus; also recorded: C. jeikeium
PF-210 (EREDGCDAMPLP; Peptide with targeting and/or antimicrobial activity)	S. epidermidis and P. aeruginosa and C. albicans and MRSA and E. faecalis and C. jeikeium and C. jejuni
PF-213 (MTTGVDFIIEKV; Peptide with targeting and/or antimicrobial activity)	S. epidermidis
PF-214 (GHLRVCWVFSASLLTPFRSATLI; Peptide with targeting and/or antimicrobial activity)	S. mutans; also recorded: S. epidermidis; also recorded: M. luteus; also recorded: E. coli; also recorded: P. aeruginosa; also recorded: A. baumannii
PF-216 (ESVDKITEALEEDGFPAKVQ; Peptide with targeting and/or antimicrobial activity)	S. mutans; also recorded: E. coli
PF-217 (DWEFTHKTIPQKK; Peptide with targeting and/or antimicrobial activity)	S. mutans
PF-218 (SETPEKPVGTFFYSIYYKIIL; Peptide with targeting and/or antimicrobial activity)	S. epidermidis; also recorded: M. luteus; also recorded: P. aeruginosa; also recorded: A. baumannii
PF-219 (FLALAVIAGLFKVILIYAAPYLK; Peptide with targeting and/or antimicrobial activity)	S. epidermidis; also recorded: M. luteus; also recorded: P. aeruginosa; also recorded: A. baumannii
PF-221 (VFDNIDINF; Peptide with targeting and/or antimicrobial activity)	S. epidermidis; also recorded: M. luteus; also recorded: P. aeruginosa
PF-223 (VKFCIECQTKLERKRR; Peptide with targeting and/or antimicrobial activity)	S. epidermidis; also recorded: M. luteus; also recorded: A. baumannii
PF-225 (MNCASPEFKKLMELYK; Peptide with targeting and/or antimicrobial activity)	S. epidermidis
PF-228 (NQLGSQAFAQL; Peptide with targeting and/or antimicrobial activity)	S. mutans
PF-229 (DPILIQIGFTRFALRKAEAEKIEIQVEEGVPA; Peptide with targeting and/or antimicrobial activity)	S. epidermidis; also recorded: M. luteus; also recorded: P. aeruginosa; also recorded: A. baumannii
PF-230 (EDKPTNTIQEIKPVKWQ; Peptide with targeting and/or antimicrobial activity)	S. mutans
